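Where inhibition never reached the appropriate level, the endpoint shown equals the highest concentration tested. Otherwise, values were interpolated linearly from a five-concentration, 48-hour dose response in 96-well plates. The concentration for 50% growth inhibition is given as GI50. TGI marks complete inhibition of growth.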
Columns and labels:
Test in all cases: NCI tumour cell line growth inhibition, 48 h
CCRF-CEM leukemia = test system: CCRF-CEM leukemia
IGROV1 ovarian = test system: IGROV1 ovarian
KM12 colon = test system: KM12 colon
NCI-H522 lung = test system: NCI-H522 lung
SK-MEL-2 melanoma = test system: SK-MEL-2 melanoma
SK-MEL-28 melanoma = test system: SK-MEL-28 melanoma
SR leukemia = test system: SR leukemia
K-562 leukemia = test system: K-562 leukemia

COc1ccc2c(c1)[nH]c(=O)c1c3cc(OC)c(OC)cc3cn21
GI50 (CCRF-CEM leukemia): < 0.0114 µM
TGI (CCRF-CEM leukemia): 1.12 µM
GI50 (IGROV1 ovarian): < 0.0178 µM
TGI (IGROV1 ovarian): 0.233 µM
GI50 (KM12 colon): < 0.01 µM
TGI (KM12 colon): 0.292 µM
GI50 (NCI-H522 lung): < 0.01 µM
TGI (NCI-H522 lung): 0.0125 µM
GI50 (SK-MEL-2 melanoma): 0.0303 µM
TGI (SK-MEL-2 melanoma): 20.8 µM
GI50 (SK-MEL-28 melanoma): < 0.01 µM
TGI (SK-MEL-28 melanoma): 18.2 µM
GI50 (SR leukemia): < 0.01 µM
TGI (SR leukemia): 0.0961 µM

O=C(Oc1ccccc1Cl)c1ccccc1Nc1cccc(C(F)(F)F)c1
GI50 (CCRF-CEM leukemia): 3.42 µM
TGI (CCRF-CEM leukemia): 12.3 µM
GI50 (IGROV1 ovarian): 28 µM
TGI (IGROV1 ovarian): > 100 µM
GI50 (K-562 leukemia): 2.67 µM
TGI (K-562 leukemia): 8.43 µM
GI50 (KM12 colon): 19.6 µM
TGI (KM12 colon): 44.6 µM
GI50 (NCI-H522 lung): 19.5 µM
TGI (NCI-H522 lung): 52.4 µM
GI50 (SK-MEL-2 melanoma): 20.9 µM
TGI (SK-MEL-2 melanoma): > 100 µM
GI50 (SK-MEL-28 melanoma): 38.5 µM
TGI (SK-MEL-28 melanoma): > 100 µM

O=C(c1nn(-c2ccc(Cl)cc2)cc1O)n1nc(C(F)(F)F)cc1-c1ccccc1
GI50 (CCRF-CEM leukemia): 0.738 µM
TGI (CCRF-CEM leukemia): > 33.8 µM
GI50 (IGROV1 ovarian): 0.921 µM
TGI (IGROV1 ovarian): > 100 µM
GI50 (K-562 leukemia): 1.72 µM
TGI (K-562 leukemia): > 100 µM
GI50 (KM12 colon): 5.09 µM
TGI (KM12 colon): > 100 µM
GI50 (SK-MEL-2 melanoma): 38.2 µM
TGI (SK-MEL-2 melanoma): > 100 µM
GI50 (SK-MEL-28 melanoma): 6.56 µM
TGI (SK-MEL-28 melanoma): > 100 µM

CC(C)=CC(=O)N[C@@H]1CC2CCC3C(CC[C@@]4(C)C3CC[C@@H]4C(C)N(C)C)[C@@]2(C)C[C@@H]1O (some centres undefined)
GI50 (CCRF-CEM leukemia): 4.85 µM
TGI (CCRF-CEM leukemia): 28.9 µM
GI50 (IGROV1 ovarian): 5.54 µM
TGI (IGROV1 ovarian): 25.1 µM
GI50 (K-562 leukemia): 0.849 µM
TGI (K-562 leukemia): 8.49 µM
GI50 (KM12 colon): 4.41 µM
TGI (KM12 colon): 30.1 µM
GI50 (NCI-H522 lung): 7.47 µM
TGI (NCI-H522 lung): 31.3 µM
GI50 (SK-MEL-2 melanoma): 14.4 µM
TGI (SK-MEL-2 melanoma): 38.2 µM
GI50 (SK-MEL-28 melanoma): 1.91 µM
TGI (SK-MEL-28 melanoma): 3.89 µM

Cc1cc(NCc2cc(Nc3ccnc4cc(Cl)ccc34)ccc2F)nc(N2CCSCC2)n1
GI50 (CCRF-CEM leukemia): 0.473 µM
TGI (CCRF-CEM leukemia): > 100 µM
GI50 (IGROV1 ovarian): 1.83 µM
TGI (IGROV1 ovarian): 4.42 µM
GI50 (K-562 leukemia): 0.906 µM
TGI (K-562 leukemia): 3.35 µM
GI50 (NCI-H522 lung): 1.96 µM
TGI (NCI-H522 lung): 4.49 µM
GI50 (SK-MEL-2 melanoma): 2.15 µM
TGI (SK-MEL-2 melanoma): 4.71 µM

O=C(NO)c1ccc(Cn2c(=O)n(-c3ccccc3)c(=O)c3ccccc32)cc1
GI50 (CCRF-CEM leukemia): 0.457 µM
TGI (CCRF-CEM leukemia): > 100 µM
GI50 (K-562 leukemia): 0.942 µM
TGI (K-562 leukemia): > 100 µM
GI50 (KM12 colon): 1.11 µM
TGI (KM12 colon): 2.73 µM
GI50 (SK-MEL-2 melanoma): 1.22 µM
TGI (SK-MEL-2 melanoma): 3.34 µM
GI50 (SK-MEL-28 melanoma): 0.519 µM
TGI (SK-MEL-28 melanoma): 2.93 µM
GI50 (SR leukemia): 1.68 µM
TGI (SR leukemia): > 100 µM

COc1cc(C(=O)O/N=C(\N)Cc2cccc3ccccc23)cc(OC)c1OC
GI50 (CCRF-CEM leukemia): 3.62 µM
TGI (CCRF-CEM leukemia): 23.3 µM
GI50 (IGROV1 ovarian): 3.61 µM
TGI (IGROV1 ovarian): 12.1 µM
GI50 (KM12 colon): 9.12 µM
TGI (KM12 colon): 22.1 µM
GI50 (NCI-H522 lung): 1.87 µM
TGI (NCI-H522 lung): 3.7 µM
GI50 (SK-MEL-2 melanoma): 14.9 µM
TGI (SK-MEL-2 melanoma): 29.4 µM
GI50 (SK-MEL-28 melanoma): 12.4 µM
TGI (SK-MEL-28 melanoma): 26.2 µM

Oc1ccc(Oc2cnc3cc(Cl)ccc3n2)cc1
GI50 (CCRF-CEM leukemia): 1.62 µM
TGI (CCRF-CEM leukemia): 79.9 µM
GI50 (K-562 leukemia): 37.7 µM
TGI (K-562 leukemia): > 100 µM
GI50 (KM12 colon): 13.4 µM
TGI (KM12 colon): > 100 µM
GI50 (NCI-H522 lung): 19.1 µM
TGI (NCI-H522 lung): > 100 µM
GI50 (SK-MEL-28 melanoma): 76 µM
TGI (SK-MEL-28 melanoma): > 100 µM
GI50 (SR leukemia): 22 µM
TGI (SR leukemia): 68.4 µM

COc1ccc2c(c1)C(=O)c1c-2c(N2CCN(C(=O)CNCCN(C)C)CC2)nc2ccccc12
GI50 (CCRF-CEM leukemia): 1.39 µM
TGI (CCRF-CEM leukemia): 4.5 µM
GI50 (IGROV1 ovarian): 1.11 µM
TGI (IGROV1 ovarian): 2.69 µM
GI50 (K-562 leukemia): 0.72 µM
TGI (K-562 leukemia): > 100 µM
GI50 (KM12 colon): 1.83 µM
TGI (KM12 colon): 4.38 µM
GI50 (NCI-H522 lung): 1.76 µM
TGI (NCI-H522 lung): 3.44 µM
GI50 (SK-MEL-2 melanoma): 2.07 µM
TGI (SK-MEL-2 melanoma): 3.83 µM
GI50 (SK-MEL-28 melanoma): 1.67 µM
TGI (SK-MEL-28 melanoma): 3.04 µM

Fc1ccc([C@@H]2CCNC[C@H]2COc2ccc3c(c2)OCO3)cc1
GI50 (IGROV1 ovarian): 7.05 µM
TGI (IGROV1 ovarian): 20.3 µM
GI50 (K-562 leukemia): 2.32 µM
TGI (K-562 leukemia): 6.24 µM
GI50 (KM12 colon): 3.86 µM
TGI (KM12 colon): 14.1 µM
GI50 (NCI-H522 lung): 12 µM
TGI (NCI-H522 lung): 25.4 µM
GI50 (SK-MEL-2 melanoma): 5.72 µM
TGI (SK-MEL-2 melanoma): 18.5 µM
GI50 (SK-MEL-28 melanoma): 5.96 µM
TGI (SK-MEL-28 melanoma): 19 µM
GI50 (SR leukemia): 2.02 µM
TGI (SR leukemia): 5.34 µM

O=C1CC(c2ccsc2)c2snc(-c3ccc(Cl)cc3)c2N1 (centres undefined)
GI50 (IGROV1 ovarian): 2.87 µM
TGI (IGROV1 ovarian): > 100 µM
GI50 (K-562 leukemia): 0.356 µM
TGI (K-562 leukemia): > 100 µM
GI50 (KM12 colon): 0.385 µM
TGI (KM12 colon): > 100 µM
GI50 (NCI-H522 lung): 0.626 µM
TGI (NCI-H522 lung): 13.5 µM
GI50 (SK-MEL-2 melanoma): 3.93 µM
TGI (SK-MEL-2 melanoma): > 100 µM
GI50 (SK-MEL-28 melanoma): 3.11 µM
TGI (SK-MEL-28 melanoma): > 100 µM

O=C(Cc1csc2nc(-c3ccc(Br)cc3)cn12)N/N=C/c1ccc(Cl)cc1Cl
GI50 (CCRF-CEM leukemia): 40 µM
TGI (CCRF-CEM leukemia): > 100 µM
GI50 (IGROV1 ovarian): 16 µM
TGI (IGROV1 ovarian): 45.6 µM
GI50 (KM12 colon): 38.2 µM
TGI (KM12 colon): > 100 µM
GI50 (NCI-H522 lung): 25.8 µM
TGI (NCI-H522 lung): > 100 µM
GI50 (SK-MEL-2 melanoma): 72 µM
TGI (SK-MEL-2 melanoma): > 100 µM
GI50 (SK-MEL-28 melanoma): > 100 µM
TGI (SK-MEL-28 melanoma): > 100 µM

O=C(Oc1ccc2c(-c3ccccc3)c(C(=O)Nc3ccc(Cl)cc3)c(=O)oc2c1)c1ccccc1
TGI (CCRF-CEM leukemia): > 100 µM
TGI (IGROV1 ovarian): > 100 µM
TGI (K-562 leukemia): > 100 µM
TGI (KM12 colon): > 100 µM
TGI (NCI-H522 lung): > 100 µM
TGI (SK-MEL-2 melanoma): > 100 µM
TGI (SK-MEL-28 melanoma): > 100 µM

Reference: PubChem BioAssay (NCI)
